Where two headings read alike, the source gives them in different places.
Assays:
Format in all cases: cell-based, mouse
[1] = test system: α7 integrin (LacZ reporter in α7βgal+/− myoblasts); experiment: Myoblast α7+/LacZ integrin FDG assay (Burkin assay in myoblasts, 96-well); details: α7+/LacZ myoblasts, 96-well; for fold induction at 0.5 µM / fold induction at 1 µM / fold induction at 5 µM / fold induction at 10 µM / fold induction at 20 µM / fold induction at 40 µM: Mus musculus, Myoblast, 48 h
[2] = test system: α7 integrin (LacZ reporter in α7+/LacZ myotubes); experiment: Myotube α7 integrin FDG assay (Burkin assay in myotubes, 96-well); details: myotubes; for fold induction at 0.5 µM / fold induction at 1 µM / fold induction at 5 µM / fold induction at 10 µM / fold induction at 20 µM / fold induction at 40 µM: Mus musculus, Myotube
[3] = test system: β-galactosidase in CMV-LacZ C2C12 myoblasts; experiment: CMV-LacZ secondary screen in C2C12 myoblasts (β-Gal stabilizing assay); details: CMV-LacZ C2C12 myoblasts
Outline: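 β-Gal level was the read-out, measured in a clonal C2C12 line expressing LacZ from a CMV promoter. Dose-response curves used six concentrations, 0.5 μM up to 40 μM, with duplicate points.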

[4] = test system: β-galactosidase in CMV-LacZ C2C12 myotubes; experiment: CMV-LacZ secondary screen in C2C12 myotubes (β-Gal stabilizing assay); details: C2C12 CMV-LacZ myotubes, fold relative to DMSO
Outline: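 β-gal stabilization was measured in C2C12 myoblasts or myotubes stably transfected with a CMV-driven LacZ construct, using the FDG β-gal assay. Compounds were tested in dose-response at 0.5, 1, 5, 10, 20 and 40 μM, with two replicates per point.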

## CCOC(=O)C1CCCN(C(=O)CNS(=O)(=O)c2ccc(Br)s2)C1 (stereo not drawn) [MLS000086970-01]
[1]; 0.5 uM, read-out: Burkin Assay in Myoblasts, signal relative to DMSO
  fold induction at 0.5 µM: 0.982
[1]; 0.5 uM, read-out: Burkin Assay in Myoblasts, value relative to DMSO
  fold induction at 0.5 µM: 1.01
[1]; 1 uM, read-out: Burkin Assay in Myoblasts, signal relative to DMSO
  fold induction at 1 µM: 1.07
[1]; 1 uM, read-out: Burkin Assay in Myoblasts, value relative to DMSO
  fold induction at 1 µM: 1.2
[1]; 5 uM, read-out: Burkin Assay in Myoblasts, signal relative to DMSO
  fold induction at 5 µM: 0.858
[1]; 5 uM, read-out: Burkin Assay in Myoblasts, value relative to DMSO
  fold induction at 5 µM: 1.6
[1]; 10 uM, read-out: Burkin Assay in Myoblasts, signal relative to DMSO
  fold induction at 10 µM: 0.872
[1]; 10 uM, read-out: Burkin Assay in Myoblasts, value relative to DMSO
  fold induction at 10 µM: 0.955
[1]; 20 uM, read-out: Burkin Assay in Myoblasts, signal relative to DMSO
  fold induction at 20 µM: 0.854
[1]; 20 uM, read-out: Burkin Assay in Myoblasts, value relative to DMSO
  fold induction at 20 µM: 1.02
[1]; 40 uM, read-out: Burkin Assay in Myoblasts, signal relative to DMSO
  fold induction at 40 µM: 0.781
[1]; 40 uM, read-out: Burkin Assay in Myoblasts, value relative to DMSO
  fold induction at 40 µM: 0.934
[2]; 0.5 uM, read-out: Burkin Assay in Myotubes (signal relative to DMSO)
  fold induction at 0.5 µM: 0.953
[2]; 1 uM, read-out: Burkin Assay in Myotubes (signal relative to DMSO)
  fold induction at 1 µM: 0.922
[2]; 5 uM, read-out: Burkin Assay in Myotubes (signal relative to DMSO)
  fold induction at 5 µM: 1.09
[2]; 10 uM, read-out: Burkin Assay in Myotubes (signal relative to DMSO)
  fold induction at 10 µM: 0.961
[2]; 20 uM, read-out: Burkin Assay in Myotubes (signal relative to DMSO)
  fold induction at 20 µM: 0.931
[2]; 40 uM, read-out: Burkin Assay in Myotubes (signal relative to DMSO)
  fold induction at 40 µM: 0.887
[2]; 0.5 uM, read-out: Burkin Assay in Myotubes, α7 integrin LacZ reporter signal relative to DMSO
  fold induction at 0.5 µM: 1
[2]; 1 uM, read-out: Burkin Assay in Myotubes, α7 integrin LacZ reporter signal relative to DMSO
  fold induction at 1 µM: 1.09
[2]; 5 uM, read-out: Burkin Assay in Myotubes, α7 integrin LacZ reporter signal relative to DMSO
  fold induction at 5 µM: 0.864
[2]; 10 uM, read-out: Burkin Assay in Myotubes, α7 integrin LacZ reporter signal relative to DMSO
  fold induction at 10 µM: 0.958
[2]; 20 uM, read-out: Burkin Assay in Myotubes, α7 integrin LacZ reporter signal relative to DMSO
  fold induction at 20 µM: 0.961
[2]; 40 uM, read-out: Burkin Assay in Myotubes, α7 integrin LacZ reporter signal relative to DMSO
  fold induction at 40 µM: 0.971
[3]; 0.5 uM
  CMV-LACZ in Myoblasts (β-galactosidase activity relative to DMSO): 0.9925
[3]; 1 uM
  CMV-LACZ in Myoblasts (β-galactosidase activity relative to DMSO): 1.0504
[3]; 5 uM
  CMV-LACZ in Myoblasts (β-galactosidase activity relative to DMSO): 0.8994
[3]; 10 uM
  CMV-LACZ in Myoblasts (β-galactosidase activity relative to DMSO): 0.9068
[3]; 20 uM
  CMV-LACZ in Myoblasts (β-galactosidase activity relative to DMSO): 1.0197
[3]; 40 uM
  CMV-LACZ in Myoblasts (β-galactosidase activity relative to DMSO): 0.8880
[4]; Mus musculus, C2C12, read-out: CMV-LACZ in Myotubes, signal relative to DMSO, 0.5 uM
  fold induction at 0.5 µM: 0.967
[4]; Mus musculus, C2C12, read-out: CMV-LACZ in Myotubes, signal relative to DMSO, 1 uM
  fold induction at 1 µM: 0.885
[4]; Mus musculus, C2C12, read-out: CMV-LACZ in Myotubes, signal relative to DMSO, 5 uM
  fold induction at 5 µM: 1.11
[4]; Mus musculus, C2C12, read-out: CMV-LACZ in Myotubes, signal relative to DMSO, 10 uM
  fold induction at 10 µM: 0.974
[4]; Mus musculus, C2C12, read-out: CMV-LACZ in Myotubes, signal relative to DMSO, 20 uM
  fold induction at 20 µM: 0.987
[4]; Mus musculus, C2C12, read-out: CMV-LACZ in Myotubes, signal relative to DMSO, 40 uM
  fold induction at 40 µM: 0.988

## CCN(CC)C(=O)c1sc2nc(-c3ccc(OC)cc3)cn2c1C [MLS000089464-01]
[1]; 0.5 uM
  Burkin Assay in Myoblasts, signal relative to DMSO: 0.9965
[1]; 1 uM
  Burkin Assay in Myoblasts, signal relative to DMSO: 0.9802
[1]; 5 uM
  Burkin Assay in Myoblasts, signal relative to DMSO: 0.934
[1]; 10 uM
  Burkin Assay in Myoblasts, signal relative to DMSO: 0.7825
[1]; 20 uM
  Burkin Assay in Myoblasts, signal relative to DMSO: 0.5631
[1]; 40 uM
  Burkin Assay in Myoblasts, signal relative to DMSO: 0.3911
[2]; 0.5 uM
  Burkin Assay in Myotubes, α7 integrin LacZ reporter signal relative to DMSO: 1.063
[2]; 1 uM
  Burkin Assay in Myotubes, α7 integrin LacZ reporter signal relative to DMSO: 1.029
[2]; 5 uM
  Burkin Assay in Myotubes, α7 integrin LacZ reporter signal relative to DMSO: 1.128
[2]; 10 uM
  Burkin Assay in Myotubes, α7 integrin LacZ reporter signal relative to DMSO: 0.9917
[2]; 20 uM
  Burkin Assay in Myotubes, α7 integrin LacZ reporter signal relative to DMSO: 0.9545
[2]; 40 uM
  Burkin Assay in Myotubes, α7 integrin LacZ reporter signal relative to DMSO: 0.8373
[3]; 0.5 uM
  CMV-LACZ in Myoblasts (β-galactosidase activity relative to DMSO): 0.9117
[3]; 1 uM
  CMV-LACZ in Myoblasts (β-galactosidase activity relative to DMSO): 0.9160
[3]; 5 uM
  CMV-LACZ in Myoblasts (β-galactosidase activity relative to DMSO): 0.9372
[3]; 10 uM
  CMV-LACZ in Myoblasts (β-galactosidase activity relative to DMSO): 1.1969
[3]; 20 uM
  CMV-LACZ in Myoblasts (β-galactosidase activity relative to DMSO): 0.7500
[3]; 40 uM
  CMV-LACZ in Myoblasts (β-galactosidase activity relative to DMSO): 0.5274
[4]; 0.5 uM
  CMV-LACZ in Myotubes, signal relative to DMSO: 0.9716
[4]; 1 uM
  CMV-LACZ in Myotubes, signal relative to DMSO: 1.3716
[4]; 5 uM
  CMV-LACZ in Myotubes, signal relative to DMSO: 0.9400
[4]; 10 uM
  CMV-LACZ in Myotubes, signal relative to DMSO: 0.9529
[4]; 20 uM
  CMV-LACZ in Myotubes, signal relative to DMSO: 1.3067
[4]; 40 uM
  CMV-LACZ in Myotubes, signal relative to DMSO: 1.0178

## COc1ccc(C(=O)Nc2ccc(Cl)cn2)cc1Cl [MLS000089748-01]
[1]; 0.5 uM
  Burkin Assay in Myoblasts, signal relative to DMSO: 1.145
[1]; 1 uM
  Burkin Assay in Myoblasts, signal relative to DMSO: 1.168
[1]; 5 uM
  Burkin Assay in Myoblasts, signal relative to DMSO: 0.8656
[1]; 10 uM
  Burkin Assay in Myoblasts, signal relative to DMSO: 0.7355
[1]; 20 uM
  Burkin Assay in Myoblasts, signal relative to DMSO: 0.2402
[1]; 40 uM
  Burkin Assay in Myoblasts, signal relative to DMSO: 0.1766
[2]; 0.5 uM
  Burkin Assay in Myotubes, α7 integrin LacZ reporter signal relative to DMSO: 1.043
[2]; 1 uM
  Burkin Assay in Myotubes, α7 integrin LacZ reporter signal relative to DMSO: 0.9139
[2]; 5 uM
  Burkin Assay in Myotubes, α7 integrin LacZ reporter signal relative to DMSO: 0.8675
[2]; 10 uM
  Burkin Assay in Myotubes, α7 integrin LacZ reporter signal relative to DMSO: 0.8026
[2]; 20 uM
  Burkin Assay in Myotubes, α7 integrin LacZ reporter signal relative to DMSO: 0.7715
[2]; 40 uM
  Burkin Assay in Myotubes, α7 integrin LacZ reporter signal relative to DMSO: 0.7415
[3]; 0.5 uM
  CMV-LACZ in Myoblasts (β-galactosidase activity relative to DMSO): 1.2129
[3]; 1 uM
  CMV-LACZ in Myoblasts (β-galactosidase activity relative to DMSO): 0.8592
[3]; 5 uM
  CMV-LACZ in Myoblasts (β-galactosidase activity relative to DMSO): 1.0665
[3]; 10 uM
  CMV-LACZ in Myoblasts (β-galactosidase activity relative to DMSO): 0.9905
[3]; 20 uM
  CMV-LACZ in Myoblasts (β-galactosidase activity relative to DMSO): 0.3140
[3]; 40 uM
  CMV-LACZ in Myoblasts (β-galactosidase activity relative to DMSO): 0.4437
[4]; 0.5 uM
  CMV-LACZ in Myotubes, signal relative to DMSO: 0.9527
[4]; 1 uM
  CMV-LACZ in Myotubes, signal relative to DMSO: 0.9809
[4]; 5 uM
  CMV-LACZ in Myotubes, signal relative to DMSO: 1.1104
[4]; 10 uM
  CMV-LACZ in Myotubes, signal relative to DMSO: 0.9813
[4]; 20 uM
  CMV-LACZ in Myotubes, signal relative to DMSO: 1.3800
[4]; 40 uM
  CMV-LACZ in Myotubes, signal relative to DMSO: 1.2820

## CCOC(=O)c1sc(=N)n(-c2ccc(OC)cc2)c1C [MLS000090135-01]
[1]; 0.5 uM
  Burkin Assay in Myoblasts, signal relative to DMSO: 1.227
[1]; 1 uM
  Burkin Assay in Myoblasts, signal relative to DMSO: 1.166
[1]; 5 uM
  Burkin Assay in Myoblasts, signal relative to DMSO: 0.988
[1]; 10 uM
  Burkin Assay in Myoblasts, signal relative to DMSO: 1.018
[1]; 20 uM
  Burkin Assay in Myoblasts, signal relative to DMSO: 0.6029
[1]; 40 uM
  Burkin Assay in Myoblasts, signal relative to DMSO: 0.3956
[2]; 0.5 uM
  Burkin Assay in Myotubes, α7 integrin LacZ reporter signal relative to DMSO: 1.042
[2]; 1 uM
  Burkin Assay in Myotubes, α7 integrin LacZ reporter signal relative to DMSO: 0.9598
[2]; 5 uM
  Burkin Assay in Myotubes, α7 integrin LacZ reporter signal relative to DMSO: 0.8747
[2]; 10 uM
  Burkin Assay in Myotubes, α7 integrin LacZ reporter signal relative to DMSO: 0.9078
[2]; 20 uM
  Burkin Assay in Myotubes, α7 integrin LacZ reporter signal relative to DMSO: 0.8015
[2]; 40 uM
  Burkin Assay in Myotubes, α7 integrin LacZ reporter signal relative to DMSO: 0.8215
[3]; 0.5 uM
  CMV-LACZ in Myoblasts (β-galactosidase activity relative to DMSO): 1.0896
[3]; 1 uM
  CMV-LACZ in Myoblasts (β-galactosidase activity relative to DMSO): 0.9421
[3]; 5 uM
  CMV-LACZ in Myoblasts (β-galactosidase activity relative to DMSO): 0.9731
[3]; 10 uM
  CMV-LACZ in Myoblasts (β-galactosidase activity relative to DMSO): 0.9296
[3]; 20 uM
  CMV-LACZ in Myoblasts (β-galactosidase activity relative to DMSO): 0.6017
[3]; 40 uM
  CMV-LACZ in Myoblasts (β-galactosidase activity relative to DMSO): 0.3653
[4]; 0.5 uM
  CMV-LACZ in Myotubes, signal relative to DMSO: 1.0155
[4]; 1 uM
  CMV-LACZ in Myotubes, signal relative to DMSO: 1.1036
[4]; 5 uM
  CMV-LACZ in Myotubes, signal relative to DMSO: 0.7503
[4]; 10 uM
  CMV-LACZ in Myotubes, signal relative to DMSO: 1.0114
[4]; 20 uM
  CMV-LACZ in Myotubes, signal relative to DMSO: 1.1100
[4]; 40 uM
  CMV-LACZ in Myotubes, signal relative to DMSO: 1.1840

— patent publication US9980943B2, “Methods of treating muscular dystrophy” (BOARD OF REGENTS OF THE NEVADA SYSTEM OF HIGHER EDUCATION, …, priority 2013, dated 2018)
